Experimental data published in publication PMC9535023, “Inhibition of phospholipase D1 induces immunogenic cell death and potentiates cancer immunotherapy in colorectal cancer” (Experimental & Molecular Medicine, 2022).

Columns and labels:
Type in all cases: cell-based
[1] = target: T1, PLD1 (Mus musculus, UniProt Q9Z280); experiment: PLD1 activity in Pld2−/− MEFs
T1 construct: endogenous in cells; host or cells: immortalized Pld2-/- mouse embryonic fibroblasts
T1 sequence (Q9Z280 1-1074): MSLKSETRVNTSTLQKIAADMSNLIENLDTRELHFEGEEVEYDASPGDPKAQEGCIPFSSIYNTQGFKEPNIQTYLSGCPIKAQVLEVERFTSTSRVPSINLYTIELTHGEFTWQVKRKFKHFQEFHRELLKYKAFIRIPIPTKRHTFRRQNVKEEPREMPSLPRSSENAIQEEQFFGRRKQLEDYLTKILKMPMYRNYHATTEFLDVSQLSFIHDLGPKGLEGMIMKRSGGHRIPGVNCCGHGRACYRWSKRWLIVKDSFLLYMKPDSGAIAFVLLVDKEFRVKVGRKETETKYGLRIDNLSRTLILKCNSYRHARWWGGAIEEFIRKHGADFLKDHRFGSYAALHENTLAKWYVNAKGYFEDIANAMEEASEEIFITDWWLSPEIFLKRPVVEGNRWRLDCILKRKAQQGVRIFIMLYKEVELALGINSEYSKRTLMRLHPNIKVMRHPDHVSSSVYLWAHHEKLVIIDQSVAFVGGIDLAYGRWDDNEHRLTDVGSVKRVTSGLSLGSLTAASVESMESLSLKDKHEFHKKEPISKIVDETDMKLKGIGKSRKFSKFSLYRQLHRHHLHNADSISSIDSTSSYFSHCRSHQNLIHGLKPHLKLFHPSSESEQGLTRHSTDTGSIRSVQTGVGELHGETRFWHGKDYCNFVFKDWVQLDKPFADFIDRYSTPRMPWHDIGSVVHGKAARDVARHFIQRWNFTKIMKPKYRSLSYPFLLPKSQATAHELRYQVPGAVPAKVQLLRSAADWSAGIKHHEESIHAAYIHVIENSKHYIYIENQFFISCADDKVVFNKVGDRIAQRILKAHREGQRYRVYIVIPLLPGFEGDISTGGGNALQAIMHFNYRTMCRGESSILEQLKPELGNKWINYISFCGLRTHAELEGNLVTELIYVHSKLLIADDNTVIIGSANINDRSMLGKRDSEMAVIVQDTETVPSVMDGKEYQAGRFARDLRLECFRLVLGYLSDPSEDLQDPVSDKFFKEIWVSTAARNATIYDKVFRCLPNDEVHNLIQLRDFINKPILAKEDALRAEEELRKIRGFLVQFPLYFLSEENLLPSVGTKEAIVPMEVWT
Experimental: Cells were labeled with [H^3] myristic acid, and PLD activity was assessed by measuring the formation of [H^3] phosphatidylbutanol, which is the product of PLD-mediated transphosphatidylation, in the presence of 1-butanol, as previously described.
We further investigated the effect of A3373 on the enzymatic inhibition of PLD1 and PLD2 in Pld^+/+, Pld1^−/−, and Pld2^−/− MEFs. […] Kinase profiling was used to evaluate the general selectivity of the lead compounds. […] To further investigate whether inhibition of PLD1 by A3373 occurs by binding to PLD1, we first modified A3373 by adding biotinylation instead of the F present in its structure and measured PLD activity.

[2] = system: DLD1 cells; experiment: Cell viability (MTT)
Experimental: Cell viability was measured by MTT (3-(4,5-dimethylthiazol2-yl)-2,5-diphenyltetrazolium bromide, Sigma-Aldrich). Cells (5 × 10^3 cells/well) were seeded in a 96-well plate. […] After treatment, the cells were incubated with 0.5 mg/mL MTT in the media for 2 h and lysed with DMSO. Absorbance was measured at 570 nm using a VersaMax ELISA microplate reader (Molecular Devices).

[3] = system: FHC cells; experiment: Cell cycle analysis (BrdU/7-AAD flow cytometry), FHC; settings: FHC normal fetal colonic mucosa cells
Experimental: For cell cycle analysis, the cells were treated with Α3373 or 5-FU. The cells were labeled with 10 μΜ bromodeoxyuridine (BrdU) for 2 h. Subsequently, the cells were stained with 7-aminoactinomycin D (7-AAD, Invitrogen) and a fluorescein isothiocyanate (FITC)-conjugated anti-BrdU antibody (Invitrogen). Apoptotic cells were detected using an Annexin V-FITC Apoptosis Detection Kit (BD Biosciences). The cells were analyzed using BD FACSAria III (BD Biosciences), and data analysis was performed using FlowJo v10.0 (BD Biosciences).

[4] = system: CRC cells; experiment: Measurement of extracellular ATP
Experimental: For the quantitative determination of extracellular ATP, the cells were treated with Α3373. Extracellular release of ATP was assessed using the ENLITEN ATP Assay kit (Promega) according to the manufacturer’s instructions. For the HMGB1 level measurement, the supernatants of the cells were prepared by removing insoluble materials by centrifugation at 10,000 × g for 3 min at 4 °C. The levels of HMGB1 were measured using an HMGB1 detection kit (Chondrex) according to the manufacturer’s instructions.

[5] = system: HCT 116 cells; experiment: Immunoblotting of β-catenin and its target genes; settings: time- and dose-dependent, 1% serum
Experimental: As previously described, lysates from cells or colorectal cancer (CRC) tissues were analyzed by immunoprecipitation, and/or Western blotting was performed as described previously. The antibodies used are listed in Supplementary Table 5. A polyclonal anti-PLD antibody that recognizes both PLD1 and PLD2 was generated, as previously described. The use of human CRC tissue samples was approved by the Institutional Review Board of Pusan National University, Korea (PNU IRB/2011-6).

[6] = system: CRC cells; experiment: Cell migration and invasion assay
Experimental: For the cell migration assay, the cells were added to an 8 μm pore transwell polycarbonate chamber (SPL Life Science). After 24 h of incubation, the number of cells that migrated through the membrane into the lower chamber was counted. For the cell invasion assay, Matrigel (dilution at 1:5; BD Biosciences) was added to the Transwell chambers and incubated for 5 h. The cells were then seeded; after 24 h of incubation, the invaded cells on the bottom of the membrane were fixed with 10% formalin for 20 min and stained with 0.1% crystal violet for 3 h. The extent of invasion was expressed as the average number of cells per microscopic field.

O=C(Nc1cc(C(F)(F)F)cc(C(F)(F)F)c1)c1cc2cc(F)ccc2[nH]1 [Compound A3373]
PLD1 activity, in words ([1]; 2 μM, Pld−/− MEFs): suppressed
IC50 ([1]; Pld2−/− MEFs): 325 nM
potency in suppressing viability, comparison ([2]; DLD1 cells): higher potency in suppressing viability than that of VU0155069
viability of DLD1 cells, in words ([2]; dose- and time-dependent): significantly inhibited the viability
cell cycle / S phase in FHC cells, in words [3]: had no effect on FHC cells
extracellular ATP, in words [4]: significantly increased extracellular ATP
protein levels of β-catenin and its target genes (PLD1, CD133, CD44, c-Myc, cyclin D1) [5]: greatly reduced the protein levels of β-catenin and its target genes
Wnt3a-induced migration and invasion [6]: significantly suppressed Wnt3a-induced migration and invasion
